US20090023704A1, “Novel Compounds 737” (ASTRAZENECA AB, priority 2007, published 2009)

target: T1, GABAB receptor (GABABR1a/GABABR2 heterodimer) (Homo sapiens, UniProt O75899+Q9UBS5); assay: [35S]-GTPγS binding assay, potency of PAM (GABA dose-response curves with and without test compound); type: biochemical; details: potency of the positive allosteric modulator; GABA dose-response in presence of test compound
T1 construct: expressed in transfected cells
Description: GABABR1a and GABABR2 were cloned from human brain cDNA and subcloned into pCI-Neo (Promega) and pALTER-1 (Promega), respectively. A GABABR1a-Gαqi5 fusion protein expression vector was constructed using the pCI-Neo-GABABR1a cDNA plasmid and pLEC1-Gαqi5 (Molecular Devices, CA). In order to make the Gαqi5 pertussis toxin insensitive, Cys356 was mutated to Gly using standard PCR methodology with the primers 5′-[…]-3′ (forward) and 5′-GCGGCCG […]-3′ (reverse). The Gαqi5mut cDNA was ligated into the BamHI and NotI sites of pcDNA3.0 (Invitrogen). The GABAB R1a coding sequence was amplified by PCR from pCI-Neo-GABABR1a using the primers, 5′-[…]-3′ (forward) and 5′-[…]-3′ (reverse) and subcloned into the BamHI site of pcDNA3.0-Gαqi5mut.
For generation of a cell line expressing the GABABR1a/GABABR2 heterodimer, GABABR1a plasmid DNA (4 μg) GABABR2 plasmid DNA (4 μg) and lipofectamine (24 μl) were mixed in 5 ml OptiMEM and incubated for 45 minutes at room temperature. The cells were exposed to the transfection medium for 5 hours, which then was replaced with culture medium. The cells were cultured for an additional 10 days before selection agents (300 μg/ml hygromycin and 400 μg/ml geneticin) were added. Twenty-four days after transfection, single cell sorting into 96-well plates by flow cytometry was performed using a FACS Vantage SE (Becton Dickinson, Palo Alto, Calif.). After expansion, the GABAB receptor functional response was tested using the FLIPR assay described below. The clone with the highest functional response was collected, expanded and then subcloned by single cell sorting. The clonal cell line with the highest peak response in the FLIPR was used in the present study.
For generation of a stable cell line expressing GABABR1a-Gαqi5 fusion protein and GABABR2, GABABR1a-Gαqi5mut plasmid DNA (8 μg) GABABR2 plasmid DNA (8 μg) and lipofectamine (24 μl) were mixed in 5 ml OptiMEM and incubated for 45 minutes at room temperature. The cells were exposed to the transfection medium for 5 hours, which then was replaced with culture medium. After forty-eight hours, the cells were detached and seeded in 6 well plates (2000 cells/well) and grown in culture medium supplemented with geneticin (400 μg/ml) and zeocin (250 μg/ml). After 4 days, cells from single colonies were collected and transferred to a 24-well plate. After 10 days, the cell clones were seeded in T-25 flasks and grown for another 16 days before they were tested for GABAB receptor mediated functional response. […] The clonal cell line that gave the highest peak response in the FLIPR was used in the present study.
[^35S]-GTPγS binding assays were performed at 30° C. for 45 min in membrane buffer (100 mM NaCl, 5 mM MgCl2, 1 mM EDTA, 50 mM HEPES, pH 7.4) containing 0.025 μg/μl of membrane protein (prepared from the cell lines described above) with 0.01% bovine serum albumin (fatty acid free), 10 μM GDP, 10 μM DTT and 0.53 nM [^35S]-GTPγS (Amersham-Pharmacia Biotech) in a final volume of 200 μl. Non-specific binding was determined in the presence of 20 μM GTPγS. The reaction was started by the addition of GABA at concentration between 1 mM and 0.1 nM in the presence or absence of the required concentration of PAM. The reaction was terminated by addition of ice-cold wash buffer (50 mM Tris-HCl, 5 mM MgCl2, 50 mM NaCl, pH 7.4) followed by rapid filtration under vacuum through Printed Filtermat A glass fiber filters (Wallac) (0.05% PEI treated) using a Micro 96 Harvester (Skatron Instruments). The filters were dried for 30 min at 50° C., then a paraffin scintillant pad was melted onto the filters and the bound radioactivity was determined using a 1450 Microbeta Trilux (Wallac) scintillation counter.
GABA dose-response curves in the presence and absence of test compounds were constructed using the 4-parameter logistic equation, y=ymax+((ymin−ymax)/1+(x/C)^D), where C=EC50 and D=slope factor.

T1 sequence (Q9UBS5 15-961 limits assumed): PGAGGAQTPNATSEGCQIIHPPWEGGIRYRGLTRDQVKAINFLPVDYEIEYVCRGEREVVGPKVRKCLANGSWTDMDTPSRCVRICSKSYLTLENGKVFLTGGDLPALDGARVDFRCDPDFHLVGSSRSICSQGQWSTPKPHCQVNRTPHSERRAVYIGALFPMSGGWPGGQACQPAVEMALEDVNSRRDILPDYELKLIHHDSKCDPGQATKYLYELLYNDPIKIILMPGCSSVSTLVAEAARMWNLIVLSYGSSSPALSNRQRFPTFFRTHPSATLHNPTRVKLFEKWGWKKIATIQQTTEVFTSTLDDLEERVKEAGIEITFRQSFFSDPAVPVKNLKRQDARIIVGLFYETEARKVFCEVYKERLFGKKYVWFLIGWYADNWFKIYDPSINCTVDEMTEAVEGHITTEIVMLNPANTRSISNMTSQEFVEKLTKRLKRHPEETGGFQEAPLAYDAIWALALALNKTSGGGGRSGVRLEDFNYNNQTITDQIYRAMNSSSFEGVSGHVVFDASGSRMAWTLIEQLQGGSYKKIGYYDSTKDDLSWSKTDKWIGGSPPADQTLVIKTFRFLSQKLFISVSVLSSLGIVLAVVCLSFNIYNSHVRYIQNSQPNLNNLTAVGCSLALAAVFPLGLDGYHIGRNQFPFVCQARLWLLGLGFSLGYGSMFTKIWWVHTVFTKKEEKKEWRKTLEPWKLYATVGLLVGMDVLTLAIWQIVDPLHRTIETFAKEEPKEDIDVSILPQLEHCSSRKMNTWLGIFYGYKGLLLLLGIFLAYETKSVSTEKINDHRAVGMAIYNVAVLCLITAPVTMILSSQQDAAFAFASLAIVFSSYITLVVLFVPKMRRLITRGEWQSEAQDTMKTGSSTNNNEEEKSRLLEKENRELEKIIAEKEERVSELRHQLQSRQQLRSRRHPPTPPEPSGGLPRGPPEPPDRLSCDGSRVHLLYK
T1 sequence (O75899 42-941): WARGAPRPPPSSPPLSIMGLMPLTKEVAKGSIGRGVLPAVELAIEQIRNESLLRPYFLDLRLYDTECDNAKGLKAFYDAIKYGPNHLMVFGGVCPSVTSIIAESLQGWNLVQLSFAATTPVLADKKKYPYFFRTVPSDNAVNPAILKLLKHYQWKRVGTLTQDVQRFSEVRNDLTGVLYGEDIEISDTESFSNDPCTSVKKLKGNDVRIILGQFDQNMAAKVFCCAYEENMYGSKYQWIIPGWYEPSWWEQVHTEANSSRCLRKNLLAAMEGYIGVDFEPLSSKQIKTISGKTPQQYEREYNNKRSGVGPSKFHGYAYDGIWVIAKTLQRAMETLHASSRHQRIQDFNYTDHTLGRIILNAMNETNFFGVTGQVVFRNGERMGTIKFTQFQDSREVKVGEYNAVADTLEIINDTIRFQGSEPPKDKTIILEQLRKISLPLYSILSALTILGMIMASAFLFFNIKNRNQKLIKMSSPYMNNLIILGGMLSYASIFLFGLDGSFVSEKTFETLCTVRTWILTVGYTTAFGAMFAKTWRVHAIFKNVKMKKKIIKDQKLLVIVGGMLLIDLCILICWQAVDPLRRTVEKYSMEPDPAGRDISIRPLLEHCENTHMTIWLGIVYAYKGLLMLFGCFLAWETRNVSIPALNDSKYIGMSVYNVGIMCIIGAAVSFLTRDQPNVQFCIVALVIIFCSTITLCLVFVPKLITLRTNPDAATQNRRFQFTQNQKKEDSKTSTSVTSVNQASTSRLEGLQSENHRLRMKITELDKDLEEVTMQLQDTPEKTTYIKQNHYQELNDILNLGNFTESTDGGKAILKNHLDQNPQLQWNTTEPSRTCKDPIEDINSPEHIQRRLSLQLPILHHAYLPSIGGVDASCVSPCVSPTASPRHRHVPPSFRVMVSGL

Point of comparison: `CCC(=O)Cn1c(=O)n(Cc2ccc(Cl)cc2)c(=O)c2c1nc(CC)n2C` [Example 33, 1-(4-chlorobenzyl)-8-ethyl-7-methyl-3-(2-oxobutyl)-3,7-dihydro-1H-purine-2,6-dione], EC50 3.7 µM. Against it:
- CCc1nc2c(c(=O)n(Cc3ccc(Cl)cc3)c(=O)n2Cc2ccc(C(F)(F)F)cc2)n1C [Example 31, 1-(4-chlorobenzyl)-8-ethyl-7-methyl-3-[4-(trifluoromethyl)benzyl]-3,7-dihydro-1H-purine-2,6-dione] — within 1.5-fold, 5.5 µM
- CCc1nc2c(c(=O)n(Cc3ccc(Cl)cc3)c(=O)n2CCOC)n1C [Example 32, 1-(4-chlorobenzyl)-8-ethyl-3-(2-methoxyethyl)-7-methyl-3,7-dihydro-1H-purine-2,6-dione] — 2.1-fold higher, 7.9 µM
- CCc1nc2c(c(=O)n(Cc3ccc(Cl)cc3)c(=O)n2CCCS(=O)(=O)C(C)(C)C)n1C [Example 34, 3-[3-(tert-butylsulfonyl)propyl]-1-(4-chlorobenzyl)-8-ethyl-7-methyl-3,7-dihydro-1H-purine-2,6-dione] — 3.1-fold higher, 11.3 µM
- CCc1nc2c(c(=O)n(Cc3ccc(Cl)cc3)c(=O)n2CC(=O)OC(C)(C)C)n1C [Example 35, tert-butyl [1-(4-chlorobenzyl)-8-ethyl-7-methyl-2,6-dioxo-1,2,6,7-tetrahydro-3H-purin-3-yl]acetate] — 1.5-fold higher, 5.6 µM
- CCc1nc2c(c(=O)n(Cc3ccc(Cl)cc3)c(=O)n2CCCOc2ccc(C(F)(F)F)cc2)n1C [Example 36, 1-(4-chlorobenzyl)-8-ethyl-7-methyl-3-{3-[4-(trifluoromethyl)phenoxy]propyl}-3,7-dihydro-1H-purine-2,6-dione] — 1.8-fold higher, 6.6 µM
- CCc1nc2c(c(=O)n(Cc3ccc(Cl)cc3)c(=O)n2CCn2cccc2)n1C [Example 37, 1-(4-chlorobenzyl)-8-ethyl-7-methyl-3-[2-(1H-pyrrol-1-yl)ethyl]-3,7-dihydro-1H-purine-2,6-dione] — 2.2-fold lower, 1.7 µM
- CCc1nc2c(c(=O)n(Cc3ccc(Cl)cc3)c(=O)n2CCCO)n1C [Example 38, 1-(4-chlorobenzyl)-8-ethyl-3-(3-hydroxypropyl)-7-methyl-3,7-dihydro-1H-purine-2,6-dione] — 1.8-fold higher, 6.8 µM
- CCc1nc2c(c(=O)n(Cc3ccc(Cl)cc3)c(=O)n2Cc2scc(S(=O)(=O)C(C)C)c2Cl)n1C [Example 39, 1-(4-chlorobenzyl)-3-{[3-chloro-4-(isopropylsulfonyl)-2-thienyl]methyl}-8-ethyl-7-methyl-3,7-dihydro-1H-purine-2,6-dione] — 2.1-fold lower, 1.8 µM
- CCc1nc2c(c(=O)n(Cc3ccc(Cl)c(Cl)c3)c(=O)n2CC(=O)C(C)(C)C)n1C [Example 40, 1-(3,4-Dichlorobenzyl)-3-(3,3-dimethyl-2-oxobutyl)-8-ethyl-7-methyl-3,7-dihydro-1H-purine-2,6-dione] — 6.2-fold lower, 0.6 µM
- CCc1nc2c(c(=O)n(Cc3ccc(Cl)c(Cl)c3)c(=O)n2CCC(C)(C)C)n1C [Example 41, 1-(3,4-Dichlorobenzyl)-3-(3,3-dimethylbutyl)-8-ethyl-7-methyl-3,7-dihydro-1H-purine-2,6-dione] — 1.9-fold lower, 2 µM
- CCc1nc2c(c(=O)n(Cc3ccc(Cl)c(Cl)c3)c(=O)n2CC(=O)[C@]23C[C@@H]4C[C@H](C[C@@H](C4)C2)C3)n1C [Example 42, 3-{2-[(3S,5S,7S)-Adamantan-1-yl]-2-oxoethyl}-1-(3,4-dichlorobenzyl)-8-ethyl-7-methyl-3,7-dihydro-1H-purine-2,6-dione] — 3.1-fold higher, 11.3 µM
- CCc1nc2c(c(=O)n(Cc3ccc(Cl)c(Cl)c3)c(=O)n2CC[Si](C)(C)C)n1C [Example 43, 1-(3,4-Dichlorobenzyl)-8-ethyl-7-methyl-3-[2-(trimethylsilyl)ethyl]-3,7-dihydro-1H-purine-2,6-dione] — within 1.5-fold, 2.7 µM
- CCc1nc2c(c(=O)n(Cc3ccc(Cl)c(Cl)c3)c(=O)n2CCCCC2CCCCC2)n1C [Example 44, 3-(4-Cyclohexylbutyl)-1-(3,4-dichlorobenzyl)-8-ethyl-7-methyl-3,7-dihydro-1H-purine-2,6-dione] — 3.4-fold higher, 12.5 µM
- CCc1nc2c(c(=O)n(Cc3ccc(Cl)cc3)c(=O)n2CCCN2CCCC2)n1C [Example 46, 1-(4-chlorobenzyl)-8-ethyl-7-methyl-3-(3-pyrrolidin-1-ylpropyl)-3,7-dihydro-1H-purine-2,6-dione] — 4.6-fold higher, 16.9 µM
- CCc1nc2c(c(=O)n(Cc3ccc(Cl)cc3)c(=O)n2CCCN2CCN(c3ccccc3)CC2)n1C [Example 47, 1-(4-Chlorobenzyl)-8-ethyl-7-methyl-3-[3-(4-phenylpiperazin-1-yl)propyl]-3,7-dihydro-1H-purine-2,6-dione] — 2.4-fold higher, 8.7 µM
- CCc1nc2c(c(=O)n(Cc3ccc(Cl)cc3)c(=O)n2CCCN2CCC3(CC2)OCCO3)n1C [Example 48, 1-(4-Chlorobenzyl)-3-[3-(1,4-dioxa-8-azaspiro[4.5]dec-8-yl)propyl]-8-ethyl-7-methyl-3,7-dihydro-1H-purine-2,6-dione] — 3.3-fold higher, 12.1 µM
- CCc1nc2c(c(=O)n(Cc3ccc(Cl)cc3)c(=O)n2CCCn2ccnc2)n1C [Example 49, 1-(4-Chlorobenzyl)-8-ethyl-3-[3-(1H-imidazol-1-yl)propyl]-7-methyl-3,7-dihydro-1H-purine-2,6-dione] — 3.6-fold higher, 13.4 µM
- CCc1nc2c(c(=O)n(Cc3ccc(Cl)cc3)c(=O)n2CC(=O)N2CCC(F)(F)C2)n1C [Example 50, 1-(4-Chlorobenzyl)-3-[2-(3,3-difluoropyrrolidin-1-yl)-2-oxoethyl]-8-ethyl-7-methyl-3,7-dihydro-1H-purine-2,6-dione] — 2.7-fold higher, 10 µM
- CCc1nc2c(c(=O)n(Cc3ccc(Cl)cc3)c(=O)n2CC(=O)N(C(C)C)C(C)C)n1C [Example 51, 2-[1-(4-Chlorobenzyl)-8-ethyl-7-methyl-2,6-dioxo-1,2,6,7-tetrahydro-3H-purin-3-yl]-N,N-diisopropylacetamide] — 3.2-fold higher, 11.9 µM
- CCc1nc2c(c(=O)n(Cc3ccc(Cl)cc3)c(=O)n2CC(OC)OC)n1C [Example 52, 1-(4-chlorobenzyl)-3-(2,2-dimethoxyethyl)-8-ethyl-7-methyl-3,7-dihydro-1H-purine-2,6-dione] — 2.4-fold higher, 8.8 µM
- CCCn1c(=O)n(Cc2ccc(Cl)cc2)c(=O)c2c1nc(CC)n2C [Example 54, 1-(4-chlorobenzyl)-8-ethyl-7-methyl-3-propyl-3,7-dihydro-1H-purine-2,6-dione] — 1.6-fold higher, 5.89 µM
- CCCn1c(=O)n(Cc2ccc(OCc3ccccc3)cc2)c(=O)c2c1nc(CC)n2C [Example 56, 1-[4-(Benzyloxy)benzyl]-8-ethyl-7-methyl-3-propyl-3,7-dihydro-1H-purine-2,6-dione] — 4.1-fold higher, 15 µM
- CCCn1c(=O)n(Cc2ccc(Cl)c(Cl)c2)c(=O)c2c1nc(CC)n2C [Example 57, 1-(3,4-Dichlorobenzyl)-8-ethyl-7-methyl-3-propyl-3,7-dihydro-1H-purine-2,6-dione] — within 1.5-fold, 2.6 µM
- CCCn1c(=O)n(Cc2ccc3ccccc3c2)c(=O)c2c1nc(CC)n2C [Example 58, 8-Ethyl-7-methyl-1-(2-naphthylmethyl)-3-propyl-3,7-dihydro-1H-purine-2,6-dione] — within 1.5-fold, 2.7 µM
- CCCn1c(=O)n(Cc2cnn(-c3ccc(Cl)cc3)c2C(F)(F)F)c(=O)c2c1nc(CC)n2C [Example 59, 1-{[1-(4-Chlorophenyl)-5-(trifluoromethyl)-1H-pyrazol-4-yl]methyl}-8-ethyl-7-methyl-3-propyl-3,7-dihydro-1H-purine-2,6-dione] — 1.6-fold higher, 5.9 µM
